Measured values as given in patent publication US20240118281A1, “ANTICANCER COMPOUNDS AND USES THEREOF” (University of Florida Research Foundation, Incorporated, priority 2021, published 2024).

Key:
Format in all cases: cell-based
MDA-MB-468 cells = test: Thymidine incorporation (DNA synthesis) assay; conditions: 24 h, FIG. 9A
Experimental: Thymidine incorporation assays were performed as described previously (Corsino P, et al. J Biol Chem 2009; 284: 29945-29955).

DR5 [1] = test: Disulfide bond-mediated oligomerization and levels, non-reducing immunoblot
From the text: (§1) The BT20, BT474, BT549, MCF7, MDA-MB-231, MDA-MB-436, MDA-MB-468, HCC1143, HCC1500, HCC1569, HCC1937, HCC1954, Hs578t, and T47D cells lines were purchased from American Type Culture Collection (ATCC) (Manassas, VA). The HCI-001 cell line was derived from an ER-/PR-/HER2- patient-derived xenograft originally isolated from a patient as described previously (DeRose Y S, et al. Nat Med 2011; 17: 1514-1520). The HCI-001/LVM2 model was derived from the HCI-001 cell line by performing two rounds of selection for liver metastasis, as described previously (Wang M, et al. Cell Death Discovery 2019; 5: 153). Cell lines were grown in Dulbecco's Modified Eagle's Medium (GE Healthcare Life Sciences, Logan, UT) containing 10% fetal bovine serum (10% FBS—DMEM) in a humidified incubator with 5% CO2 at 37° C. Cell lysates were prepared as described previously (Law B K, et al. Mol Cell Biol. 2002; 22: 8184-8198). Immunoblot analysis was performed utilizing the following antibodies purchased from Cell Signaling Technology (Beverly, MA) [Akt, #4691; P-Akt[T308], #13038; ATF4, #11815; CHOP, #2895; Cleaved Caspase 8, #9496; DR4, #42533; DR5, #8074; EGFR, #4267; GRP78, #3177; HER3, #4754; PARP, #9532; PDIA1, #3501; XBP1s, #12782], from Santa Cruz Biotechnology (Santa Cruz, CA) [Actin, sc-47778; AGR2/3, sc-376653; AGR3, sc-390940; ERO1-a, sc-100805; and ERp44, sc-393687], or from Rockland Immunochemicals, Inc. (Limerick, PA), Streptavidin-Alkaline Phosphatase conjugated (SA-AP), S000-05.
(§2) To assess protein disulfide bond-mediated oligomerization, cells were treated with DDAs for 24 h in 10% FBS-DMEM. Cells were subsequently scraped directly into the media and pelleted by centrifugation. Cells were extracted directly into boiling 2×-SDS-Sample Buffer containing 100 mM NEM and boiled for 10 min. Samples were sonicated, followed by centrifugation for 20 min at room temperature. Samples were subsequently analyzed by SDS-PAGE and immunoblot.

DR4 = test: Surface biotinylation; conditions: MDA-MB-468 cells, 2.5 μM, 24 h, amine- or thiol-reactive probes, FIG. 6D
Experimental: (§3) Cell surface proteins were labeled by incubation of cells with 1.6 mM Sulfo-NHS-SS-Biotin (Thermo Fisher Scientific, Waltham, MA) or 1.6 mM Biotin-dPEG3-Maleimide (MilliporeSigma, St. Louis, MO) in Phosphate-Buffered Saline (PBS), pH 8.0 for 30 minutes at 4° C. The cells were subsequently washed three times with PBS, and proteins were extracted in a buffer containing 1% Triton X-100 extraction buffer in the absence of reducing agents. Cell extracts were then incubated with Streptavidin-agarose beads (Thermo Fisher Scientific, Waltham, MA) for 2.5 h at 4° C. Following centrifugation, the supernatant containing non-biotinylated proteins (flow-through) was retained and boiled in 2×-SDS-Sample Buffer containing 1% 2-mercaptoethanol. Streptavidin-agarose beads bound to biotinylated proteins were washed four times with 0.1% Triton X-100 extraction buffer, followed by boiling in 2×-SDS-Sample Buffer containing 1% 2-mercaptoethanol. Samples were then analyzed by immunoblot or blotting with Streptavidin-Alkaline Phosphatase.

DR5 [2] = test: Surface biotinylation; conditions: MDA-MB-468 cells, 2.5 μM, 24 h, amine- or thiol-reactive probes, FIG. 6D
Experimental: as §3

GRP78 = test: Endoplasmic reticulum stress (ERS) induction, immunoblot; conditions: MDA-MB-468 cells, 24 h
From the text: as §1, §2

[3] = MDA-MB-468 cells, 24 h, compared with tcyDTDO, FIG. 1E left

CO[C@H]1C[C@@H]2CS(=O)(=O)SC[C@H]2C[C@@H]1OC [dMtcyDTDO, dimethoxy-tcyDTDO]
Potency in DNA synthesis assay relative to tcyDTDO (MDA-MB-468 cells): two-fold greater potency than tcyDTDO
Levels and oligomerization of DR5, densitometry (DR5 [1]; 0, 1.25, 2.5, 5 uM, FIG. 1F): increases the levels of both oligomeric and monomeric forms of DR5
Concentration at which oligomerization of DR5 was observed (DR5 [1]; MDA-MB-468 cells, 24 h, FIG. 1E right): 1.25 µM
DR4/5 oligomerization at the same concentration (DR5) (DR5 [1]; [3]): more DR4/5 oligomerization
DR5 levels at the same concentration (DR5 [1]; [3]): higher DR5 levels
Cell surface levels of DR4 (DR4): increased cell surface levels of DR4 and DR5
Cell surface levels of DR5 (DR5 [2]): increased cell surface levels of DR4 and DR5
Concentration at which induction of ERS (GRP78 elevation) was detected (GRP78; FIG. 1E right): 625 nM
ERS at the same concentration (GRP78; compared with tcyDTDO, FIG. 1E left): greater ERS
